In paper PMC10820890, “Potential of Tryptamine Derivatives as Multi-Target Directed Ligands for Alzheimer’s Disease: AChE, MAO-B, and COX-2 as Molecular Targets” (Molecules, 2024):
Like-named read-outs stand apart in the source and are kept apart here.

Experiments:
[1] = target: T1, MAO-B extracted from the rat brain (Rattus norvegicus, UniProt P19643); experiment: MAO-B inhibition, Amplex Red monoamine oxidase assay kit; type: biochemical
T1 construct: Synaptosomes containing the MAO enzyme were isolated from the rat brain; from tissue; host or cells: rat brain synaptosomes (Dawley rats)
T1 sequence (P19643 1-520): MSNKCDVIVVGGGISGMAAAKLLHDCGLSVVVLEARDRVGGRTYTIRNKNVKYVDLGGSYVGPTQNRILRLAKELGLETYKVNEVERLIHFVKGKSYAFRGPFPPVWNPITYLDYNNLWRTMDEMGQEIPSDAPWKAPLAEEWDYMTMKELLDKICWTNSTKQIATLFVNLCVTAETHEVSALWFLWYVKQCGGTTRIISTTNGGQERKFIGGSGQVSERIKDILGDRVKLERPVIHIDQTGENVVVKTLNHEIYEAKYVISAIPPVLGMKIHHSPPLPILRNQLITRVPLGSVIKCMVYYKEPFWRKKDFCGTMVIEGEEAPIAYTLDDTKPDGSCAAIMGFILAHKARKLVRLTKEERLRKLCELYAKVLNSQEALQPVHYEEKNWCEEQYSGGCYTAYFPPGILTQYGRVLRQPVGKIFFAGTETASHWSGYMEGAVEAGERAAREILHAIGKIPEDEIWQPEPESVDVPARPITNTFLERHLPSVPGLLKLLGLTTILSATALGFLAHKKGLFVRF
From the text: Synaptosomes containing the MAO enzyme were isolated from the rat brain by the method of Hojas, with some modification. Three Dawley rats of any sex with weight ranging from 200–250 gm were decapitated after administration of an anesthetic agent (mixture of propofol and xylocaine). Immediately, complete brains were removed from the bed of ice on a petri dish, and the brains were washed with ice-chilled PBS (phosphate-buffered saline) of pH 7.0, 0.1M and normal saline. Then, each brain, weighing approximately 1 g, was suspended into 10 mL of ice-chilled […] sucrose pH 7.4 20% w/v accordingly and homogenized for 10 min using Daihan homogenizer HG-15A. Brain homogenate was transferred into a centrifuge tube and centrifuged at a speed of 7500× g rpm for 15 min at 4 °C by a Scan Speed 1730R Microcentrifuge from Labo Gene, Marlborough, MA, USA. The supernatant was preserved, and the solid brain mass debris present on the bottom was discarded. The supernatant was then diluted with ice-chilled distilled PBS as per need and centrifuged over 12,000× g rpm for 20 min at 4 °C through the mentioned microcentrifuge. Then, pellets containing a white solid mass at the bottom (synaptosomes containing the MAO enzyme) were stored, and each pallet was diluted with PBS buffer. Aliquoting of synaptosomes was carried out and stored at −70 °C till the assay was performed.
For the evaluation of the MAO-B inhibition potential of synthesized compounds, the Amplex® Red Monoamine Oxidase Assay kit was purchased from Invitrogen Molecular Probes, Thermo Fisher Scientific, Waltham, MA, USA. This is a one-step fluorometric bioassay that principally detects the resorufin (7-Hydroxy-3H-phenoxazin-3-one), which is a fluorescent moiety formed in the presence of Horseradish Peroxidase (HRP) by the oxidation of nonfluorescent compound Amplex Red (AMR), chemically known as 10-acetyl-3,7-dihydroxyphenoxazine. The hydrogen peroxide (H2O2) was synthesized during the conversion of substrate to its aldehyde product by MAO enzyme action. […] The assay was performed according to the instruction of the manufacturer (http://tools.thermofisher.com/content/sfs/manuals/mp12214.pdf; accessed on 20 October 2020), with a few modifications. The Amplex Red reagent kit was used as compared to other H2O2 detection probes because of its stability and the stability of resorufin, which is a reaction product along with the longer wavelength spectra. Extracted MAO-B enzyme from rat brain was diluted in sodium phosphate buffer of pH 7.4, 0.25 M. The substrate for MAO-B was benzylamine. Pargyline was used as a standard. All the stock solutions of inhibitors were prepared in dimethyl sulfoxide (DMSO) 100%. Different dilutions of inhibitors were prepared in reaction buffer to obtain less than 2% (v/v) DMSO for evading false positive results. The final reaction volume contained a two-fold lower concentration of enzyme and the inhibitors. […] H2O2 working solution was diluted in the reaction buffer to prepare a final concentration of 10 µM H2O2 and used as positive control, and the reaction buffer with no H2O2 was the negative control. The reaction was started by adding 100 µL of working solution in each well of a black, opaque, 96-well microplate holding the controls and samples. A total of 50 µL of the MAO enzyme solution was added into each well. The composition of the working solution was 400 µM Amplex Red reagent, reaction buffer, 2 U/mL HRP, and 2 mM substrate solution. The possible interference that can be produced by the fluorescence of the compounds generated within the reaction mixture because of non enzymatic inhibition was eradicated by the addition of samples with Amplex Red only in the reaction buffer. The fluorescence of the blank (control with no enzyme) was subtracted to correct the background fluorescence. All the reactions were incubated at 37 °C for 30 min. […]

AChE from electric eel = AChE from electric eel (Electrophorus electricus, UniProt O42275); experiment: biochemical; conditions: mean of three independent measurements, read-out: AChE (IC50 ± SD)
Sequence of AChE from electric eel (O42275 24-633): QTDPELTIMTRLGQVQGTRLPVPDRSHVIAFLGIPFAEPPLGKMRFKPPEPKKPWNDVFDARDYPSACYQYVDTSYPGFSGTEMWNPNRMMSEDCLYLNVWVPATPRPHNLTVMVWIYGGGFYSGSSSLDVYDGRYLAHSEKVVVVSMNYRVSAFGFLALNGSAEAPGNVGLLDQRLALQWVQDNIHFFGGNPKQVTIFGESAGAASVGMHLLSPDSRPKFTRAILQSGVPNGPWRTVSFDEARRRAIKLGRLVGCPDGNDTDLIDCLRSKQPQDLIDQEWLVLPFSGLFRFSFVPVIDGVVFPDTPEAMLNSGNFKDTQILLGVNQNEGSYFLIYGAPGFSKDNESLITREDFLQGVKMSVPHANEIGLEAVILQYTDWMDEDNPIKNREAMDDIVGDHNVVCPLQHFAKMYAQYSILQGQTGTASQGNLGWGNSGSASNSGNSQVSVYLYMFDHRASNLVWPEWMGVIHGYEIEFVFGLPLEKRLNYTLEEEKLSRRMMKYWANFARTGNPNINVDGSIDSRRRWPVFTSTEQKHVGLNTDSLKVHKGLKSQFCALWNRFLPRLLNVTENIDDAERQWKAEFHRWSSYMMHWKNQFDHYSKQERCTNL
From the text: The AChE inhibitory potential of the synthesized tryptamine derivatives was investigated using a modified Ellman’s method. In this enzymatic assay, thiocholine, the product of enzymatic hydrolysis, lacks a substantial chromophore for UV detection. Therefore, Ellman’s reagent (DTNB) was employed as the chromogenic chemical. Ellman’s procedure for the in vitro acetylcholinesterase inhibition assay is based on a two-step reaction involving the chemical components DTNB (5,5-dithiobis(2-nitro) benzoic acid), a hydrolyzed substrate (thiocholine), and the enzyme AChE [59]. In the first step, the substrate acetylthiocholine iodide undergoes hydrolysis catalyzed by the AChE enzyme, resulting in the formation of thiocholine and acetic acid. In the second step, TNB (5-thio-2-nitrobenzoic acid) is generated by the reaction between Ellman’s reagent (DTNB) and thiocholine through an electron-shifting process to sulfur. […] Higher enzyme activity is reflected by an increase in absorbance at this wavelength. The formation of TNB is directly associated with the hydrolysis of acetylthiocholine iodide. Each reaction was initiated by taking a 2 mL working solution, which consisted of 150 µL of the sample (either test compounds or positive control), 50 µL of 0.22 units/mL acetylcholinesterase enzyme from electric eel origin (AChE, E.C. 3.1.1.7, in lyophilized powder, ≥1000 unit), and sodium phosphate buffer (0.1 M, pH 7.4), making it up to a total of 2 mL. The working solution was then incubated at room temperature ([…]) for 15 min, after which 1 mL of Ellman’s solution (200 µL of 75 mM ACTI and 500 µL of 10 mM DTNB in 15 mL sodium phosphate buffer) was added. The stock solutions of tryptamine analogs were prepared in dimethyl sulfoxide (DMSO) 100%. […] All chemicals were purchased from Sigma-Aldrich, St. Louis, MO, USA and TCI Tokyo Chemical Industry Co., Ltd., Saitama, Japan. […] A negative control reaction was also performed under the same conditions but without the inclusion of samples. In this assay, the blank consisted of sodium phosphate buffer. Each experiment was conducted in triplicate.
The percentage of acetylcholinesterase inhibition activity for each tested dilution was calculated using the following equation: Percent inhibition activity%=Absorbance of control−Absorbance of test/Absorbanec of control×100
The results were then presented in a tabular format as the mean IC50 ± SD. The IC50 values, which represent the half-maximal inhibitory concentration, were determined by creating a graph that relates different concentrations (µM) to the percent inhibition (%) using the linear regression method provided by GraphPad Prism software 7 [61, 62, 63].

Human recombinant COX-2 = target: T2, Human recombinant COX-2 (Homo sapiens, UniProt P35354); experiment: In vitro fluorometric COX-2 inhibition assay kit; type: biochemical; conditions: compounds tested at 100 µM, mean of three independent measurements; for inhibition at 100 µM: read-out: COX-2 (%Inhibition ± SD)
T2 construct: purchased BioVision (kit manual cited); the text also says reagents came from Sigma-Aldrich K547
T2 sequence (P35354 18-604): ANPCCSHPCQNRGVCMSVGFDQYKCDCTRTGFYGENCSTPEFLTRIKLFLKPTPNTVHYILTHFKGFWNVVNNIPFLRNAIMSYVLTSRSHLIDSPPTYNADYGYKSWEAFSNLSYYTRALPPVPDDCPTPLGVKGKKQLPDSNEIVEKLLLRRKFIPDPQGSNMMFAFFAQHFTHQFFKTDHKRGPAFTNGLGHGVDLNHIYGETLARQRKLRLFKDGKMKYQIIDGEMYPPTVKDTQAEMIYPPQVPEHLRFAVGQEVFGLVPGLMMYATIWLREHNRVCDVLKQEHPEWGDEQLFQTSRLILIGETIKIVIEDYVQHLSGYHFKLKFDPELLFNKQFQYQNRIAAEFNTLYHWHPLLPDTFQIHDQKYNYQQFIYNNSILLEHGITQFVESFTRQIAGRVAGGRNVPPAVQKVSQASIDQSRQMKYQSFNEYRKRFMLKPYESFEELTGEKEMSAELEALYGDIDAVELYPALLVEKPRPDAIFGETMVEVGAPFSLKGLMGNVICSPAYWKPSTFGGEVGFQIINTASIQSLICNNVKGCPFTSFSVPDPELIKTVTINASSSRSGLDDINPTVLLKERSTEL
Protocol: The fluorometric COX-2 inhibition assay kit provides a simple, fast, sensitive, and consistent method appropriate for carrying out high-throughput analysis for COX-2 inhibitors. The assay is based on the formation of prostaglandin G2 (PG2), which is an intermediate made from arachidonic acid under the action of the COX-2 enzyme. The reagents were prepared, and testing procedures were executed according to these recommended guidelines. The fluorescence of the samples was measured in an opaque 96-well plate at a temperature of 37 °C, precisely 5 min after the initiation of the experiment, utilizing a microplate reader from Thermo Scientific, USA. All compounds were tested at a concentration of 100 µM in a DMSO-1% solution. […] Dilutions were prepared in sodium phosphate buffer 0.1 M, pH 7.4. All the reagents were purchased from Sigma-Aldrich, St. Louis, MO, USA. The mean fluorescence values were calculated to determine the percentage of inhibition achieved by each compound. […] Each experiment was conducted in triplicate, and the percent inhibition was calculated using the following formula: % Inhibition=fluorescence of control−fluorescence of test compound/fluorescence of control×100

[2] = MAO-B extracted from rat brain, substrate benzylamine, mean of three independent measurements, read-out: MAO-B (IC50 ± SD)

Compound	IC50 [1, 2]	IC50 (AChE from electric eel)	inhibition at 100 µM (Human recombinant COX-2)	COX-2 (%Inhibition ± SD) (Human recombinant COX-2; 100 µM)	IC50 [1]
C#CCN(C)Cc1ccccc1 [Pargyline, reference compound]	23.4 ± 0.32 µM				
O=C(CNCCc1c[nH]c2ccccc12)c1ccc2ccccc2c1 [SR08]	244.2 ± 1 µM	4.36 ± 0.12 µM	72.3 ± 1.67%		
O=C(CNCCc1c[nH]c2ccccc12)c1ccc(F)cc1 [SR10]	216.1 ± 0.29 µM	1 ± 0.08 µM	> 70%		
O=C(CNCCc1c[nH]c2ccccc12)c1ccc(F)cc1F [SR13]	50.6 ± 0.64 µM	9.68 ± 0.16 µM	73.8 ± 2.37%		
Cc1ccc(C(=O)CNCCc2c[nH]c3ccccc23)cc1 [SR14]	112.2 ± 0.29 µM	68.71 ± 0.24 µM	65.3 ± 2.65%		
COc1ccc(C(=O)CNCCc2c[nH]c3ccccc23)cc1 [SR17]	150.1 ± 0.26 µM	8.23 ± 0.12 µM	72.8 ± 2.54%		
O=C(CNCCc1c[nH]c2ccccc12)c1ccc(O)c(O)c1 [SR20]	222.1 ± 0.32 µM	24.97 ± 0.05 µM	68.7 ± 3.86%		
O=C(CNCCc1c[nH]c2ccccc12)c1ccccc1[N+](=O)[O-] [SR21]	142.1 ± 0.32 µM	87.73 ± 0.16 µM	34.4 ± 3.34%		
O=C(CNCCc1c[nH]c2ccccc12)c1cccc([N+](=O)[O-])c1 [SR22]	56.46 ± 0.41 µM	54.88 ± 0.19 µM	84.1 ± 4.53%		
O=C(CNCCc1c[nH]c2ccccc12)c1ccc([N+](=O)[O-])cc1 [SR23]	95.1 ± 0.43 µM	7.33 ± 0.12 µM	69.4 ± 3.11%	71.40 ± 3.11%	
O=C(CNCCc1c[nH]c2ccccc12)c1ccc(-c2ccccc2)cc1 [SR24]		6.7 ± 0.08 µM	79.3 ± 2.02%		133.2 ± 0.46 µM
O=C(CCNCCc1c[nH]c2ccccc12)c1ccccc1 [SR25]		0.17 ± 0.02 µM	> 70%		85.1 ± 0.26 µM
O=C(NCCc1c[nH]c2ccccc12)c1cc([N+](=O)[O-])cc([N+](=O)[O-])c1 [SR42]	43.2 ± 0.46 µM	0.7 ± 0.21 µM	> 70%		
NCCc1c[nH]c2ccccc12 [Tryptamine]	288.1 ± 0.32 µM	88.26 ± 0.24 µM	57.3 ± 4.96%		
